# Results as given in patent US9447134B2 (priority 2012, dated 2016).
# How the values were obtained:
# CpIMPDH = target: T1, CpIMPDH (Cryptosporidium parvum, UniProt Q8T6T2); details: read-out: IC50 against CpIMPDH
# T1 sequence (Q8T6T2 1-400): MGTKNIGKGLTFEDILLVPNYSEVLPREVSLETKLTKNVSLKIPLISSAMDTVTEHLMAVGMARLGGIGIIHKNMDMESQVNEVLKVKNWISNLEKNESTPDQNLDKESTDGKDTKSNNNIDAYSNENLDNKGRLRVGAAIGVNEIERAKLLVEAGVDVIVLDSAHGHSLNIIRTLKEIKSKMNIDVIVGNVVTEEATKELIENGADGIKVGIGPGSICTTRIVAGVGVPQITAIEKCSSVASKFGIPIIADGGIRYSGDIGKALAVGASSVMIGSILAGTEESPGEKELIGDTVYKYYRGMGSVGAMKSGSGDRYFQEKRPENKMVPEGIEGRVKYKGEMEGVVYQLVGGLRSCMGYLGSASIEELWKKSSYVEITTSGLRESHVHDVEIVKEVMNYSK
# B. anthracis IMPDH = B. anthracis IMPDH (Bacillus anthracis, UniProt A0A6L8P2U9); experiment: biochemical
# Chain of B. anthracis IMPDH (A0A6L8P2U9 1-487): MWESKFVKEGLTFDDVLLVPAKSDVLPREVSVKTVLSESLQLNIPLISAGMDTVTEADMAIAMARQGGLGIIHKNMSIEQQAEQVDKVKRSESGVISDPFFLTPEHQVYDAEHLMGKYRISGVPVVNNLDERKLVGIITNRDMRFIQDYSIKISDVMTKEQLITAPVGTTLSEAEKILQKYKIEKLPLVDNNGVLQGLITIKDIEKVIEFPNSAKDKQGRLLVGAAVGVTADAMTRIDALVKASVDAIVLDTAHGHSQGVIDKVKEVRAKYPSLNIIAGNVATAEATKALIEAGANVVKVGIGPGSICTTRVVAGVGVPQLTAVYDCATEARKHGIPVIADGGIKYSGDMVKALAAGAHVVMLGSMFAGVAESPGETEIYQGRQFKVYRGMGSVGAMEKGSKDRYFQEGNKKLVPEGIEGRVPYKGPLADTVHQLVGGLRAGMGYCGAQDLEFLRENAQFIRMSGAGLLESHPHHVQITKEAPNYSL
# F. tularensis IMPDH = F. tularensis IMPDH (Francisella tularensis, UniProt Q5NFC2); experiment: biochemical
# Chain of F. tularensis IMPDH (Q5NFC2 1-486): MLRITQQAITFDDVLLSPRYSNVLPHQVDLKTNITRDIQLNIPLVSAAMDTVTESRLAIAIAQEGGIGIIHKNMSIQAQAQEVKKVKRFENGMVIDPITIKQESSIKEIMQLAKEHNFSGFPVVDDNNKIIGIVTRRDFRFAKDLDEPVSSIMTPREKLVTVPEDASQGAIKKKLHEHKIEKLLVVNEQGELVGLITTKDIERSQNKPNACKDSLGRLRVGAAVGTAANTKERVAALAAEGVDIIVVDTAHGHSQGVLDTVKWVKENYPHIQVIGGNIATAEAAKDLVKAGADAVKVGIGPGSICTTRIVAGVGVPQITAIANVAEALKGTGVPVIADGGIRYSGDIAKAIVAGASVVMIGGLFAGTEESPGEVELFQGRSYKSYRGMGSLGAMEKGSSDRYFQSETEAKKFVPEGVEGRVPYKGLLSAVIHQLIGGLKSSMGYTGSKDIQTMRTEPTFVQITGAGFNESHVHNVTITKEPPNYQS
# S. pyogenes IMPDH = S. pyogenes IMPDH (Streptococcus pyogenes, UniProt P0C0H6); experiment: biochemical
# Chain of S. pyogenes IMPDH (P0C0H6 whole entry): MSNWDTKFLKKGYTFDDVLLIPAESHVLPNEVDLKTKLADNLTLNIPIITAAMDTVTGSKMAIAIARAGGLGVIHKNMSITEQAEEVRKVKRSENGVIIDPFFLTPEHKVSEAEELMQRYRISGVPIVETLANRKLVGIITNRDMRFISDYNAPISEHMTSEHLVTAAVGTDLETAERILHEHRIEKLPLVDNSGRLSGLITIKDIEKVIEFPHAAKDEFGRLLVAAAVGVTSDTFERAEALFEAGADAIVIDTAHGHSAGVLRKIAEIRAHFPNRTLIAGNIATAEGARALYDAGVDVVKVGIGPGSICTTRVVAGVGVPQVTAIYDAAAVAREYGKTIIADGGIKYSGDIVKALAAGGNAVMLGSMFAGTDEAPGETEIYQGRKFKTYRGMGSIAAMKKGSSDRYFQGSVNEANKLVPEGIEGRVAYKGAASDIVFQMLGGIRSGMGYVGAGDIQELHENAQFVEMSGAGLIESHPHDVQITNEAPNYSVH
# Bu. mallei IMPDH = type: biochemical, Burkholderia mallei; details: FIG. 24
# gut microbiota = details: 250 mg/kg daily, 7 days, compared with vehicle
# [1] = Plasma pharmacokinetics in C57BL/6 mice; type: in vivo, mouse
# Protocol: FIG. 32 tabulates the pharmacokinetic parameters for urea CpIMPDH inhibitors. C57BL/6 mice received a single dose of 250 mg/kg in 10% DMSO/corn oil by oral gavage.
# Given the limited efficacy of current treatments, the pharmacokinetic and physicochemical properties required for in vivo efficacy have not been established. […] P82 is the primary product of P83 metabolism, so the concentration of P82 in plasma was also measured during P83 treatment.
# PK was assessed at either the Stony Brook Translation Experimental Laboratory Therapeutics (Stony Brook, NY) or GVK Biosciences (Hyderabad, India).
# Caco-2 cells [2] = experiment: Efflux from preloaded Caco-2 cells; type: in vitro ADME, human; details: preincubated with 100 μM
# Protocol: FIG. 37 depicts the amount of P131 remaining in Caco-2 cells after the cells were loaded with different concentrations of P131 for 2 h at 37° C. in HBSS. The efflux tin is −1 h for loading at 100 μM and 2 h for 20 μM and 5 μM.
# We preloaded Caco-2 cells with 5, 20 or 100 μM P131, then measured efflux (FIG. 37). The initial intracellular concentrations of P131 were dose dependent and scaled with the extracellular concentration for the 5 and 20 μM preincubation conditions. […] P131 efflux was very slow under all three conditions, with tin of 1-2 h.
# [3] = Tissue distribution of P131 in mice; details: 24 h after a single 83 mg/kg oral dose
# Caco-2 cells [4] = experiment: Uptake in Caco-2 cells; type: in vitro ADME, human; details: extracellular concentration 10 μM
# Protocol: FIG. 33 tabulates urea CpIMPDH inhibitor permeability and uptake in Caco-2 TC7 cells. All compounds at 10 μM, pH 7.4 on both sides. Solid recovery >80% in all cases. a. Approximate intracellular concentration, assuming 4 μL of water for 1 mg of cellular protein.
# To further investigate the relationship between intestinal accumulation and antiparasitic activity, we measured the uptake of the CpIMPDH inhibitors in Caco-2 cells, a widely used model of human intestinal epithelial cells. Uptake varied over a range of 2000-fold among the eight CpIMPDH inhibitors (FIG. 33). […] All of the other compounds accumulated intracellular concentrations in excess of the extracellular concentration. […] The concentrations of all the other compounds were lower by at least a factor of 10, but nevertheless exceeded the concentrations required to inhibit CpIMPDH.
# C. parvum = details: IL-12 knockout mice, 250 mg/kg daily oral gavage
# A. baumannii IMPDH = A. baumannii IMPDH (Acinetobacter baumannii, UniProt D0CF46); experiment: biochemical
# Chain of A. baumannii IMPDH (D0CF46 entry or part of it): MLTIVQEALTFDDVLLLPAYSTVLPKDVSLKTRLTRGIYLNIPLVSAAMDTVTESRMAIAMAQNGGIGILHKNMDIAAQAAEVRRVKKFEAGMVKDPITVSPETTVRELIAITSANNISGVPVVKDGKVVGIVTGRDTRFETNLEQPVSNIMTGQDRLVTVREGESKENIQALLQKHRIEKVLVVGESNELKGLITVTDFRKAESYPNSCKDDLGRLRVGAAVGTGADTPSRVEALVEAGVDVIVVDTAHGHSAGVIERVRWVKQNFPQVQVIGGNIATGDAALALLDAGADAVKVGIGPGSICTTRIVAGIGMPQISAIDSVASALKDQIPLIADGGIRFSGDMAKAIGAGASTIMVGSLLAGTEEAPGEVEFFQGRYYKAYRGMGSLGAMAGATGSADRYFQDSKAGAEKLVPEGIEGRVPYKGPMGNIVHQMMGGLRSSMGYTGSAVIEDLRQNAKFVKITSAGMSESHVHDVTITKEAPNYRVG
SMILES,IC50 (CpIMPDH),IC50 (B. anthracis IMPDH),IC50 (F. tularensis IMPDH),IC50 (S. pyogenes IMPDH),IC50 (Bu. mallei IMPDH),impact on fecal microbiota (gut microbiota),"plasma half-life ([1]; 250 mg/kg single oral dose, C57BL/6 mice)","Cmax ([1]; 250 mg/kg single oral dose, C57BL/6 mice, read-out: maximal plasma concentration (Cmax))","plasma pharmacokinetic behavior / systemic distribution (in words) ([1]; mouse, in vivo)",cytotoxicity to Caco-2 cells (Caco-2 cells [2]),intestine and feces concentration over IC50 for CpIMPDH inhibition [3],uptake/accumulation in Caco-2 cells (in words) (Caco-2 cells [4]),"in vivo antiparasitic activity, fecal oocysts (in words) (C. parvum)",IC50 (A. baumannii IMPDH)
"Cn1nc(CC(=O)Nc2ccc3oc4ccccc4c3c2)c2ccccc2c1=O [Compound D73, N-(dibenzo[b,d]furan-2-yl)-2-(3-methyl-4-oxo-3,4-dihydrophthalazin-1-yl)acetamide]",4 nM,270 nM,60 nM,> 100000 nM,100 nM,–,–,–,–,–,–,–,–,–
CC(=NOCCN)c1cccc(C(C)(C)NC(=O)Nc2ccc(Cl)c([N+](=O)[O-])c2)c1 [Compound P131],–,210 nM,–,–,–,no additional impact,4 h,9 µM,poor systemic distribution,Some cytotoxicity,more than 100 fold,millimolar concentrations,anticryptosporidial activity,710 nM
